We go through 5 compounds from paper PMC11859423, “Fluorescent Probes to Image the KCa3.1 Channel in Tumor Cells” (Pharmaceutics, 2025).

Entries after “also recorded” stand apart in the source; their conditions may differ.

Data set [1] is described as follows: logP by HPLC retention time correlation. Format: physicochemical. The settings on record: standardized reversed phase HPLC system. On the procedure:
The logP values were recorded using HPLC analysis. Thus, the retention time of the test compound in a standardized reversed phase HPLC system is correlated with the retention times of compounds with known logP values.
In addition to the logD7.4 values, the logP values of the fluorescent probes were recorded by HPLC, i.e., after calibration of the method, the retention times were correlated with the logP values or the compounds [33]. […] Fluorescein-labeled ligands 21a and 21b are considerably more polar than the corresponding bodipy-labeled senicapoc derivatives.

Data set [2] is described as follows: logD7.4 by micro shake flask method (n-octanol / MOPS buffer pH 7.4, LC-MS). Format: physicochemical. The settings on record: read-out: logD7.4 ± SD (Micro Shake Flask). The protocol: The logD7.4 values were recorded using the micro shake flask method. In this method, the test compound is distributed between n-octanol and MOPS buffer pH 7.4, and the amount of the compound in the buffer layer is determined by mass spectrometry.
The new fluorescent dyes were designed to increase the polarity and reduce the non-specific labeling of lipophilic membranes of cells. Moreover, a higher polarity should lead to increased water solubility and thus improved handling of the dyes. The logD7.4 value was recorded as a measure of the polarity/lipophilicity using our recently published micro-shake flask method. According to this method, the amount of compound in the aqueous 3-morpholinopropanesulfonic acid (MOPS) buffer pH 7.4 was determined by LC-MS [31, 32].

The nature of data set [3]: UV-Vis absorption and time-resolved photoluminescence spectroscopy. It counts as physicochemical. The settings on record: measured in H2O, c = 10^−5 M, 298 K. On the procedure: All solvents used were of spectrometric grade (Uvasol®). UV-visible absorption spectra were measured using a Shimadzu UV–VIS spectrophotometer (UV-3600i). Photoluminescence quantum yields were measured with a Hamamatsu Photonics absolute PL quantum yield measurement system (C9920-02) equipped with a L9799-01 CW Xe light source (150 W), a monochromator, a C7473 photonic multi-channel analyzer, an integrating sphere and employing U6039-05 software, version 3.6.0. (Hamamatsu Photonics, Ltd., Shizuoka, Japan). Steady-state excitation and emission spectra were recorded on a FluoTime 300 spectrometer from PicoQuant equipped with a 300 W ozone-free Xe lamp (200–1100 nm), a 10 W Xe-flash lamp (200–1100 nm, pulse width ca. 1 µs) with repetition rates of 1–300 Hz, a double-grating excitation monochromator (Czerny–Turner type, grating with 1200 lines/mm, blaze wavelength: 300 nm), diode lasers (pulse width < 20 ps) operated by a computer-controlled laser driver PDL-828 “Sepia II” (repetition rate up to 80 MHz, burst mode for slow and weak decays), two emission monochromators (Czerny–Turner, selectable between double-grating blazed at 500 nm with 2.7 nm/mm dispersion and 1200 lines/mm, or single-grating blazed at 1250 nm with 5.4 nm/mm dispersion and 600 lines/mm) with adjustable slit width between 25 μm and 7 mm. Glam–Thompson polarizers for excitation (after the Xe-lamps) and emission (after the sample) were used. Different sample holders (Peltier-cooled mounting unit ranging from −15 to 110 °C or an adjustable front-face sample holder), along with two detectors (namely a PMA Hybrid-07 from PicoQuant with transit time spread FWHM < 50 ps, 200–850 nm, or a H10330C-45-C3 NIR detector with transit time spread FWHM 0.4 ns, 950–1400 nm from Hamamatsu) were used. Steady-state spectra and photoluminescence lifetimes were recorded in TCSPC mode by a PicoHarp 300 (minimum base resolution 4 ps) or in MCS mode by a TimeHarp 260 (where up to several ms can be traced). Emission and excitation spectra were corrected for source intensity (lamp and grating) by standard correction curves. For samples with lifetimes in the ns order, an instrument response function calibration (IRF) was performed using a diluted Ludox® dispersion. Lifetime analysis was performed using the commercial EasyTau 2 software, version 2.3. (PicoQuant, Berlin, Germany). The quality of the fit was assessed by minimizing the reduced chi squared function (χ^2) and visual inspection of the weighted residuals and their autocorrelation.
Fluorescence microscopy was used for the analysis of KCa3.1 channel labeling of cells with fluorescent dyes. Therefore, the photophysical properties of fluorescently labeled senicapoc derivatives 15a, 21a, and 22 were determined. Since the fluorophores are separated from the rest of the molecule by a linker, the photophysical properties could be recorded using azide precursors 6a, 6b, and 7a as well.

For data set [4], the target named is T1, KCa3.1 channel in A549-3R cells (Homo sapiens, UniProt O15554).
T1 construct: the non-small cell lung cancer cell line A549-3R with a high expression of the KCa3.1 channel was employed; endogenous in cells; host or cells: A549-3R cells
In words: Staining of fixed A549-3R tumor cells (Protocol 1), fluorescence microscopy. As to conditions: 10 µM in PBS, 10 min, 4 °C, Protocol 1. It counts as cell-based. The protocol: For the fixation of the cells, the DMEM medium was removed from the glass bottom dish after incubation for 24 h, and the cells were washed with 1 mL of PBS. Subsequently, 1 mL of 4% paraformaldehyde in PBS solution was added to the glass bottom dish and the mixture was incubated for 30 min at room temperature. Thereafter, the cells were washed five times with 1 mL of PBS and used for the cell staining experiments.
After fixation of the cells (Section 2.10.2), 300 µL of the 10 µM staining solution was added to the glass bottom dish. The cells were incubated for 10 min at 4 °C in a dark chamber. After incubation, the cells were washed five times with 1 mL of PBS and used subsequently for fluorescence microscopy.
An Axiovert 200 inverted microscope (Carl Zeiss AG, Jena, Germany) with a ×100 oil immersion objective and a digital camera (SPOT RT SE from Diagnostic Instruments Inc., Livingston, UK) were used. The camera was controlled by MetaVue software (version 6.3r6, Visitron, Germany). Two different filter sets were employed, the FITC filter set (Carl Zeiss Filter Set 10 bandwidth excitation filter 450–490, color splitter 510, bandpass filter 515–565) and the TRITC filter set (Carl Zeiss Filter Set 15, bandpass excitation filter 546/12, dichroic mirror 580, emission filter Long Pass 590).
Using the free imaging software ImageJ (1.53f51, NIH, USA), squares with an edge length of 50 × 50 pixels, corresponding to an area of 9 µm^2, were randomly placed in a cell and signals with Full Width at Half Maximum (FWHM) of ≤5 pixels (~300 nm) were counted as a KCa3.1 channel. For the evaluation, 7 squares were analyzed.
For the staining experiments, the non-small cell lung cancer cell line A549-3R with a high expression of the KCa3.1 channel was employed. An optimized staining protocol (Protocol 1) described previously was followed to analyze the imaging properties of the fluorescent probes. In brief, the 10 µM solution of the senicapoc–dye conjugate in PBS was added to adherent A549-3R cells in a glass bottom dish and the set-up was incubated for 10 min at 4 °C in a dark chamber. After careful washing, the cells were analyzed with a fluorescence microscope.
The images were analyzed with respect to size and density of the fluorescent dots. For this purpose, a square with a size of 50 × 50 pixels was randomly placed on the cell images using ImageJ. The intensities of the signals within the square were analyzed to calculate the Full Width at Half Maximum (FWHM) for each selected dot, which represents a measure for the signal size. For the accurate representation of a single KCa3.1 channel, the FWHM should be in the range of five pixels. Signals with a FWHM of ≤5 pixels within the square were regarded as labeled KCa3.1 channels and the number of identified channels was used to determine the density of the ion channels on the cells (Figure S8, Supplementary Materials).

Data set [5] addresses T1, KCa3.1 channel in A549-3R cells. Details: method as in PMID 36315933. The settings on record: previously reported; cited from earlier work.
On the set-up of data set [6]: method as in PMID 36315933. The settings on record: previously reported values; cited from earlier work.
In another data set the test system is KCa3.1 channels. As to conditions: read-out: IC50 (KCa3.1 channel); cited from earlier work.

The term chromatographic logP denotes a lipophilicity value derived from retention on a column. Low readings indicate lower lipophilicity, high ones higher lipophilicity. Usually IC50 stands for the midpoint of a concentration-inhibition curve.

`NC(=O)C(c1ccccc1)(c1ccc(F)cc1)c1ccc(OCCOCCNC(=S)Nc2ccc3c(c2)C(=O)OC32c3ccc(O)cc3Oc3cc(O)ccc32)cc1` (stereo not drawn) [21a, 2-[4-(2-{2-[3-(3′,6′-Dihydroxy-3-oxo-3H-spiro[[2]benzofuran-1,9′-xanthen]-5-yl)thioureido]ethoxy}ethoxy)phenyl]-2-(4-fluorophenyl)-2-phenylacetamide] came in with a chromatographic logP in data set [1] (HPLC at pH 6.0) of 1.5. Besides, the logD in data set [2] was 1.69 ± 0.04. In data set [3], the “Absorption λmax” value was 496 nm, the “Emission λmax” value turned out to be 521 nm, the “Stokes Shift” value worked out at 25 nm and the “ΦF absolute quantum yield” value was found to be 0.32 ± 0.02. The τ photoluminescence lifetime in data set [3] is 4.21 ± 0.02 ns. In addition, the “staining pattern of fixed A549-3R tumor cells” value in data set [4] is “A weak green fluorescence of the membrane and an intense staining of the nucleus”.

With `CO[B-]1(F)n2c(C)cc(C)c2C(c2ccc(OCCOCCn3cc(COc4ccc(C(C(N)=O)(c5ccccc5)c5ccc(F)cc5)cc4)nn3)cc2)=C2C(C)=CC(C)=[N+]21` (stereo not drawn) [10a], the chromatographic logP in data set [1] stood at 4.4. In addition, the staining properties result in data set [5] was “promising staining properties”. The “logD7.4 ± SD (Micro Shake Flask)” value in data set [6] is 4.60 ± 0.23.

For `CO[B-]1(F)n2c(C)cc(C)c2C(CCCCn2cc(COc3ccc(C(C(N)=O)(c4ccccc4)c4ccc(F)cc4)cc3)nn2)=C2C(C)=CC(C)=[N+]21` (stereo not drawn) [16a, 2-[4-({1-[4-(4-Fluoro-4-methoxy-1,3,5,7-tetramethyl-4-bora-3a,4a-diaza-s-indacen-8-yl)butyl]-1,2,3-triazol-4-yl}methoxy)phenyl]-2-(4-fluorophenyl)-2-phenylacetamide], the chromatographic logP in data set [1] was 4. The logD in data set [2] is above 5. In addition, the “staining pattern of fixed A549-3R tumor cells” value in data set [4] was “unspecific staining; also recorded: unspecific labeling”.

Regarding `CC1=CC(C)=[N+]2C1=C(c1ccc(OCCOCCn3cc(COc4ccc(C(C(N)=O)(c5ccccc5)c5ccc(F)cc5)cc4)nn3)cc1)c1c(C)cc(C)n1[B-]2(F)F` (stereo not drawn) [9a], the chromatographic logP in data set [1] was 5.4. For the same compound, in data set [5], the staining properties entry was “promising staining properties”. Further, the “logD7.4 ± SD (Micro Shake Flask)” value in data set [6] was 4.73 ± 0.03.

In the case of `NC(=O)C(c1ccccc1)(c1ccc(F)cc1)c1ccc(F)cc1` [senicapoc], the IC50 in the data set on KCa3.1 channels was 11 nM.
